Among the data in US12612410B2 (CHILDREN'S HOSPITAL MEDICAL CENTER, priority 2020, dated 2026) are IC50 values, retold here.

For experiment [1], the target named is T1, IRAK4 (Homo sapiens, UniProt Q9NWZ3).
T1 sequence (Q9NWZ3 1-460): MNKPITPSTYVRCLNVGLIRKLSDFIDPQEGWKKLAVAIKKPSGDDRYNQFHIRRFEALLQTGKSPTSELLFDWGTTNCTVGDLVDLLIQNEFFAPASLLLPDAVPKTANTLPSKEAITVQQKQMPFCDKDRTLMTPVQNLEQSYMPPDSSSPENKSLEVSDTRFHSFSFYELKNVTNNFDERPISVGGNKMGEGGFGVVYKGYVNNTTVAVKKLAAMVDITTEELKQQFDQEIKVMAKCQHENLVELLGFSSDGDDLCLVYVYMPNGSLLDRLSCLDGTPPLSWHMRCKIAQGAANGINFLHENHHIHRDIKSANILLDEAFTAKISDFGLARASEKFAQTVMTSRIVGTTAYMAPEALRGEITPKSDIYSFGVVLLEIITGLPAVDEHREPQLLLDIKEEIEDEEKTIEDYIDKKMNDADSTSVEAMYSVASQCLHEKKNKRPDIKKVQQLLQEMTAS
Kind of experiment: RBC HotSpot Kinase Assay, IRAK4. Set-up: purchased Reaction Biology (RBC), HotSpot kinase assay. It counts as biochemical. The conditions noted are these: isolated kinase, 33P-ATP. From the text: (§1) This assay uses the isolated kinase enzyme. This assay is very useful for determining competition of the inhibitor for ATP and/or substrates and for measuring the kinetics of enzyme inhibition. […] Unlike kinase binding assays that measure competition for ATP, the HotSpot Kinase Assay is a functional assay that measures catalytic activity; as such it measures relative functional potency regardless of the mechanism of enzyme inhibition. This assay uses the form of the various enzymes that are easiest to express, which may not necessarily be the form of the enzyme that exist in the cell. (Sometimes the carboxy terminus has been truncated to aid in expression, or, if it is a receptor kinase, the enzyme itself is isolated from the other parts of the receptor that are involved in regulating kinase activity.)
(§2) The reagent used was as follows: Base Reaction buffer; 20 mM Hepes (pH 7.5), 10 mM MgCl2, 1 mM EGTA, 0.01% Brij35, 0.02 mg/ml BSA, 0.1 mM Na3VO4, 2 mM DTT, 1% DMSO. Required cofactors were added individually to each kinase reaction.
(§3) The reaction procedure was as follows: • 1) Substrates were prepared in freshly prepared Reaction Buffer. • 2) Any required cofactors were delivered to the substrate solution above. • 3) Kinase was delivered into the substrate solution and gently mixed. • 4) Compounds were delivered in 100% DMSO into the kinase reaction mixture by Acoustic technology (Echo550; nanoliter range), followed by incubation for 20 min at room temp. • 5)^33P-ATP was delivered into the reaction mixture to initiate the reaction. • 6) The mixture was incubated for 2 hours at room temperature. • 7) Kinase activity was detected by P81 filter-binding method.

The test system of experiment [2] is MOLM14 F691L cells. The experiment can be described thus: MOLM14 F691L cell viability assay (Cell Titer Glo). It counts as cell-based. On the procedure: (§4) Both cell lines have activated FLT3 receptors, each of which carry additional resistance mutations in the kinase domain (D835Y and F691L, respectively).
(§5) MOLM14 D835Y and MOLM14 F691L cells were grown in RPMI-1640 media supplemented with 20% fetal bovine serum (FBS). For viability/cytotoxicity assessments, cells were seeded into 1536-well white polystyrene tissue culture-treated Greiner plates using a Multidrop Combi dispenser (ThermoFisher), in final volume 5 μL of growth media per well, at a density of 1000 cells per well. After cell addition, 23 nL of test compound were transferred into individual wells (22 doses tested for each test compound, with a 1:2 dilution series starting at 10 μM) via a 1536 pin-tool. Bortezomib (final concentration 2.3 μM) was used as a positive control for cell cytotoxicity. Plates were incubated for 48 hours at standard incubator conditions covered by a stainless steel gasketed lid to prevent evaporation. 48 hours post compound addition, 3 μL of Cell Titer Glo (Promega) were added to each well and plates were incubated at room temperature for 15 minutes with the stainless-steel lid in place. Luminescence readings were taken using a Viewlux imager (PerkinElmer) with a 2 second exposure time per plate.
On the technique in general: Cellular ATP, detected with luciferase, serves as a proxy for viable cell number.

For experiment [3], the target named is T2, IRAK1 (Homo sapiens, UniProt P51617).
T2 construct: purchased Reaction Biology (RBC), HotSpot kinase assay
T2 sequence (P51617 whole entry): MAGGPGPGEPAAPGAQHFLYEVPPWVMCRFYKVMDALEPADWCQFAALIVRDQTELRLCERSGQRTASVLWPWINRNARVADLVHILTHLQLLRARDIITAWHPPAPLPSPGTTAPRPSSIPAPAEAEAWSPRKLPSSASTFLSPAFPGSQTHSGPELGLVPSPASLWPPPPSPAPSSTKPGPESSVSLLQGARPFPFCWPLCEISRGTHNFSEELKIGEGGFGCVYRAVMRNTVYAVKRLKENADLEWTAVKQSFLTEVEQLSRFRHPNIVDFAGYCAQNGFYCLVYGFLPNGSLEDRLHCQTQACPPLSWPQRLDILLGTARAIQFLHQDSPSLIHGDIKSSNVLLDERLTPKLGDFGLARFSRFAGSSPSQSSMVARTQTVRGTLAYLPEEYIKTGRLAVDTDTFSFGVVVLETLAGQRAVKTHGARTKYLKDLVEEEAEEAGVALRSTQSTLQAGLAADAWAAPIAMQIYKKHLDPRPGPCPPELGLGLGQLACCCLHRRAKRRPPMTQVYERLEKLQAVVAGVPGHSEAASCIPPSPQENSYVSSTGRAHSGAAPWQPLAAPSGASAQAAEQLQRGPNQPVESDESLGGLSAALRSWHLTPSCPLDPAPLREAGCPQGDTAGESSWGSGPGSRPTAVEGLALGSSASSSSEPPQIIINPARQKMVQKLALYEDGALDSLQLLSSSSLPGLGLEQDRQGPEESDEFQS
Kind of experiment: RBC HotSpot Kinase Assay, IRAK1. The conditions noted are these: isolated kinase, 33P-ATP. It counts as biochemical.
Excerpt: as §1, §2, §3

The target in experiment [4] is T3, FLT3 (Homo sapiens, UniProt P36888).
T3 sequence (P36888 27-993): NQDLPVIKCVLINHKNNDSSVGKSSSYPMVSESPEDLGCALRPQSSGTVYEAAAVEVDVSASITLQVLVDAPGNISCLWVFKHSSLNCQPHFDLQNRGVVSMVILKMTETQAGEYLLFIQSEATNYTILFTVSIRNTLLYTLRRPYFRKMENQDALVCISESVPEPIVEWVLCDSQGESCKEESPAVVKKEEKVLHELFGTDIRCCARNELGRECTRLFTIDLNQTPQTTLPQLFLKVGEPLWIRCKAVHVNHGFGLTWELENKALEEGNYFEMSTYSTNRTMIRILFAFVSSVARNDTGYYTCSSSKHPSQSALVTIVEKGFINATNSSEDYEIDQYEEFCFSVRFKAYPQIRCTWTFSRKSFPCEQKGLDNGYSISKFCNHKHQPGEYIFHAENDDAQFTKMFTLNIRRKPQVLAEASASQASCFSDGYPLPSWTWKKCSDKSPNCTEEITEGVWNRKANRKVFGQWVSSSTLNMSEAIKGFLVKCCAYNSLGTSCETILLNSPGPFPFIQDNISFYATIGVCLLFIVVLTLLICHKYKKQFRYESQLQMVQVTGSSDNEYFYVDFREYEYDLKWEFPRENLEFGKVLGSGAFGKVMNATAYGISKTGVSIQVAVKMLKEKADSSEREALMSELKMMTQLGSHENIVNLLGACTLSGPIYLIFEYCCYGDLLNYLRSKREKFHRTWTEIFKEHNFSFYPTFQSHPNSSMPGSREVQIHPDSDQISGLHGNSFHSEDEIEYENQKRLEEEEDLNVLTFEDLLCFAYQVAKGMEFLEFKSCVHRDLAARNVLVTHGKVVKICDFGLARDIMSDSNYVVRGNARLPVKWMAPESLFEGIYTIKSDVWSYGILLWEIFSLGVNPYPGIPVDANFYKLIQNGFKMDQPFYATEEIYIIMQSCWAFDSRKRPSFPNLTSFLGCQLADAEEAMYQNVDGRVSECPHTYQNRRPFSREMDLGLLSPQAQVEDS
The experiment can be described thus: RBC HotSpot Kinase Assay, FLT3. It counts as biochemical. Set-up: purchased Reaction Biology (RBC), HotSpot kinase assay. The conditions noted are these: isolated kinase, 33P-ATP.
Excerpt: as §1, §2, §3

Experiment [5] deals with MOLM14 D835Y cells. Kind of experiment: MOLM14 D835Y cell viability assay (Cell Titer Glo). It counts as cell-based. On the procedure:
as §4, §5

The structures appear in SMILES notation.

For the compound `CC(O)(c1cn2c(-c3cc(F)cc(N[C@H]4CNC[C@@H]4F)n3)cnc2cn1)C(F)(F)F` (single isomer, unassigned) [Compound 83], the IC50 – broadly, the concentration needed to halve the response being measured – in experiment [1] was 28 nM; in experiment [2] (Homo sapiens, MOLM-14, 48 h) it was 486 nM; in experiment [3] it was 329 nM; in experiment [4], less than 0.5 nM; in experiment [5] (Homo sapiens, MOLM-14, 48 h), 344 nM.

Turning to `CC(O)(c1cn2c(-c3cc(F)cc(N[C@H]4CNC[C@@H]4F)n3)cnc2cn1)C(F)(F)F` (single isomer, unassigned) [Compound 84], the concentration for half-maximal inhibition (IC50) in experiment [1] came out at 2 nM; in experiment [2] (48 hours), 410 nM; in experiment [3], 114 nM; in experiment [4], 0.6 nM; in experiment [5] (48 hours), 183 nM.

For `CC(O)(c1cn2c(-c3cc(F)cc(N[C@@H]4CCCNC4)n3)cnc2cn1)C(F)(F)F` (single isomer, unassigned) [Compound 85], the IC50 in experiment [1] was 54 nM; in experiment [2] (Homo sapiens, MOLM-14, 48 h), 290 nM; in experiment [3], 106 nM; in experiment [4], 0.6 nM; in experiment [5] (Homo sapiens, MOLM-14, 48 h), 154 nM.

On to `CC(O)(c1cn2c(-c3cc(F)cc(N[C@H]4CNCC[C@@H]4F)n3)cnc2cn1)C(F)(F)F` (single isomer, unassigned) [Compound 86], for which the half-maximal inhibitory concentration (IC50) was 65 nM in experiment [1]; 365 nM in experiment [2] (Homo sapiens, MOLM-14, 48 h); 144 nM in experiment [3]; 0.9 nM in experiment [4]; 205 nM in experiment [5] (48 hours).

Regarding `CC(O)(c1cn2c(-c3cc(F)cc(N[C@@H]4CCCNC4)n3)cnc2cn1)C(F)(F)F` (single isomer, unassigned) [Compound 87], the 50% inhibitory concentration (IC50) in experiment [1] stood at 5 nM; in experiment [2] (48 hours), 309 nM; in experiment [3], 46 nM; in experiment [4] it was 0.7 nM; in experiment [5] (48 hours), 116 nM.

Turning to `CC(O)(c1cn2c(-c3cc(F)cc(N[C@H]4CNCC[C@@H]4F)n3)cnc2cn1)C(F)(F)F` (single isomer, unassigned) [Compound 88], the half-inhibitory concentration (IC50) in experiment [1] is 15 nM; in experiment [2] (48 hours) it was 217 nM; in experiment [3], 69 nM; in experiment [4], 1 nM; in experiment [5] (48 hours), 97 nM.

Consider `CC(O)(c1cn2c(-c3nc(N[C@@H]4CCCNC4)c(F)cc3F)cnc2cn1)C(F)(F)F` (single isomer, unassigned) [Compound 89], for which the IC50 was less than 0.5 nM in experiment [1]; 649 nM in experiment [2] (Homo sapiens, MOLM-14, 48 h); 9 nM in experiment [3]; less than 0.5 nM in experiment [4]; 41 nM in experiment [5] (48 hours).

Consider `CC(O)(c1cn2c(-c3nc(N[C@@H]4CCCNC4)c(F)cc3F)cnc2cn1)C(F)(F)F` (single isomer, unassigned) [Compound 90], for which the IC50 is 7 nM in experiment [1]; 817 nM in experiment [2] (48 hours); 16 nM in experiment [3]; 2 nM in experiment [4]; 96 nM in experiment [5] (48 hours).

Turning to `CC(O)(c1cn2c(-c3nc(N[C@H]4CNC[C@@H]4F)c(F)cc3F)cnc2cn1)C(F)(F)F` (single isomer, unassigned) [Compound 91], the IC50 in experiment [1] is 2 nM; in experiment [2] (Homo sapiens, MOLM-14, 48 h), 1540 nM; in experiment [3] it was 40 nM; in experiment [4], 3 nM; in experiment [5] (48 hours), 195 nM.

`CC(O)(c1cn2c(-c3nc(N[C@H]4CNCC[C@@H]4F)c(F)cc3F)cnc2cn1)C(F)(F)F` (single isomer, unassigned) [Compound 92]: the IC50 in experiment [1] was found to be 2 nM; in experiment [2] (Homo sapiens, MOLM-14, 48 h), 969 nM; in experiment [3], 11 nM; in experiment [4] it was 2 nM; in experiment [5] (Homo sapiens, MOLM-14, 48 h), 87 nM.

`CC(O)(c1cn2c(-c3nc(N[C@H]4CNC[C@@H]4F)c(F)cc3F)cnc2cn1)C(F)(F)F` (single isomer, unassigned) [Compound 93]: the concentration for half-maximal inhibition (IC50) in experiment [1] was less than 0.5 nM; in experiment [2] (48 hours), 969 nM; in experiment [3], 8 nM; in experiment [4], 1 nM; in experiment [5] (48 hours) it was 73 nM.

Turning to `C[C@H]1CNC[C@@H]1Nc1cccc(-c2cnc3cnc(C4(C(F)(F)F)CC4)cn23)n1` [Compound 11, N-((3R,4S)-4-methylpyrrolidin-3-yl)-6-(6-(1-(trifluoromethyl)cyclopropyl)imidazo[1,2-a]pyrazin-3-yl)pyridin-2-amine], the concentration for half-maximal inhibition (IC50) is 3 nM in experiment [1]; 301 nM in experiment [3]; less than 0.5 nM in experiment [4]; 15 nM in experiment [5] (Homo sapiens, MOLM-14, 48 h).

As to `FC(F)c1cn2c(-c3cccc(N[C@@H]4CCNC4)n3)cnc2cn1` [Compound 18, (R)-6-(6-(difluoromethyl)imidazo[1,2-a]pyrazin-3-yl)-N-(pyrrolidin-3-yl)pyridin-2-amine], the half-inhibitory concentration (IC50) in experiment [1] is 1 nM; in experiment [3], 82 nM; in experiment [4], less than 0.5 nM; in experiment [5] (Homo sapiens, MOLM-14, 48 h), 14 nM.

Turning to `C[C@H]1CNC[C@@H]1Nc1cccc(-c2cnc3cnc(C(C)(C)O)cn23)n1` [Compound 29, 2-(3-(6-(((3R,4S)-4-methylpyrrolidin-3-yl)amino)pyridin-2-yl)imidazo[1,2-a]pyrazin-6-yl)propan-2-ol], the 50% inhibitory concentration (IC50) is 1 nM in experiment [1]; 273 nM in experiment [3]; 0.6 nM in experiment [4]; 42 nM in experiment [5] (Homo sapiens, MOLM-14, 48 h).

Consider `Cn1cc(-c2cn3c(-c4cccc(N[C@@H]5CCNC5)n4)cnc3cn2)cn1` [Compound 49, (R)-6-(6-(1-methyl-1H-pyrazol-4-yl)imidazo[1,2-a]pyrazin-3-yl)-N-(pyrrolidin-3-yl)pyridin-2-amine], for which the IC50 in experiment [1] was 1 nM; in experiment [3], 196 nM; in experiment [4], less than 0.5 nM; in experiment [5] (Homo sapiens, MOLM-14, 48 h) it was 9 nM.

`CC(O)(c1cn2c(-c3cccc(N[C@@H]4CCCNC4)n3)cnc2cn1)C(F)(F)F` (stereo partly drawn) [Compound 79, 1,1,1-trifluoro-2-(3-(6-((R)-piperidin-3-ylamino)pyridin-2-yl)imidazo[1,2-a]pyrazin-6-yl)propan-2-ol]: the 50% inhibitory concentration (IC50) is 237 nM in experiment [2] (Homo sapiens, MOLM-14, 48 h) and 84 nM in experiment [5] (Homo sapiens, MOLM-14, 48 h).
